Reference: PubChem BioAssay AID2060906 (Molecular Pharmacology Branch, DTP, NCI, 2025)
Each block holds one molecule with its values, some of them ahead of it.

System: 485176-168-R4-J1-PDC complex spheroid growth
Experiment: Anticancer human tumor 485176-168-R4-J1-PDC patient-derived pancreatic adenocarcinoma cell line growth inhibition [RAS]
Details: for IC50: curve of first compound; for viability, T/C: stronger effect = lower value
Procedure, shortened: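 Multi-cell-type spheroids: tumor cells plus HUVEC endothelial cells and mesenchymal stem cells. RAS-pathway inhibitors were combined with targeted agents, each dosed in half-log steps down from clinical Cmax, or from 10 microM when Cmax was unknown.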

[1] = second compound 0.00316 µM, first compound 0.0316 µM
[2] = second compound 0.00316 µM, first compound 0.1 µM
[3] = second compound 0.00316 µM, first compound 0.316 µM
[4] = second compound 0.00316 µM, first compound 1 µM
[5] = second compound 0.01 µM, first compound 0.0316 µM
[6] = second compound 0.01 µM, first compound 0.1 µM
[7] = second compound 0.01 µM, first compound 0.316 µM
[8] = second compound 0.01 µM, first compound 1 µM
[9] = second compound 0.0316 µM, first compound 0.0316 µM
[10] = second compound 0.0316 µM, first compound 0.1 µM
[11] = second compound 0.0316 µM, first compound 0.316 µM
[12] = second compound 0.0316 µM, first compound 1 µM
[13] = second compound 0.1 µM, first compound 0.0316 µM
[14] = second compound 0.1 µM, first compound 0.1 µM
[15] = second compound 0.1 µM, first compound 0.316 µM
[16] = second compound 0.1 µM, first compound 1 µM
[17] = second compound 0.316 µM, first compound 0.0316 µM
[18] = second compound 0.316 µM, first compound 0.1 µM
[19] = second compound 0.316 µM, first compound 0.316 µM
[20] = second compound 0.316 µM, first compound 1 µM
[21] = second compound 1 µM, first compound 0.0316 µM
[22] = second compound 1 µM, first compound 0.1 µM
[23] = second compound 1 µM, first compound 0.316 µM
[24] = second compound 1 µM, first compound 1 µM
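Note: spheroids exposed to compounds for seven days before readout.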
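Throughout, for viability, T/C: luminescence viability expressed relative to DMSO vehicle wells set as 100%.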

IC50 (second compound 0.00316 µM): > 10000 nM
IC50 (second compound 0.01 µM): > 10000 nM
IC50 (second compound 0.0316 µM): > 10000 nM
IC50 (second compound 0.1 µM): > 10000 nM
IC50 (second compound 0.316 µM): > 10000 nM
IC50 (second compound 1 µM): 8190 nM
SMILES: CC(Nc1ccc2c(c1)OCCn1cc(N3C(=O)OCC3C(F)F)nc1-2)C(N)=O (centres undefined) + C=CC(=O)N1CCN(c2nc(OCC3CCCN3C)nc3c(F)c(-c4nc(N)cc(C)c4C(F)(F)F)c(Cl)cc23)C(C)C1
viability, T/C [1]: 91.2%
viability, T/C [2]: 83.3%
viability, T/C [3]: 64.8%
viability, T/C [4]: 69.9%
viability, T/C (second compound 0.00316 µM, first compound 3.16 µM): 58.1%
viability, T/C (second compound 0.00316 µM, first compound 10 µM): 52.1%
viability, T/C [5]: 90.3%
viability, T/C [6]: 98.4%
viability, T/C [7]: 88.9%
viability, T/C [8]: 73.6%
viability, T/C (second compound 0.01 µM, first compound 3.16 µM): 77.9%
viability, T/C (second compound 0.01 µM, first compound 10 µM): 59.1%
viability, T/C [9]: 102%
viability, T/C [10]: 78.5%
viability, T/C [11]: 79%
viability, T/C [12]: 81.8%
viability, T/C (second compound 0.0316 µM, first compound 3.16 µM): 63.6%
viability, T/C (second compound 0.0316 µM, first compound 10 µM): 62.8%
viability, T/C [13]: 82.9%
viability, T/C [14]: 99%
viability, T/C [15]: 63%
viability, T/C [16]: 60.2%
viability, T/C (second compound 0.1 µM, first compound 3.16 µM): 61.8%
viability, T/C (second compound 0.1 µM, first compound 10 µM): 43.6%
viability, T/C [17]: 108%
viability, T/C [18]: 83%
viability, T/C [19]: 81.5%
viability, T/C [20]: 69.8%
viability, T/C (second compound 0.316 µM, first compound 3.16 µM): 75.6%
viability, T/C (second compound 0.316 µM, first compound 10 µM): 57.3%
viability, T/C [21]: 85.9%
viability, T/C [22]: 85.7%
viability, T/C [23]: 69.5%
viability, T/C [24]: 76.3%
viability, T/C (second compound 1 µM, first compound 3.16 µM): 55.7%
viability, T/C (second compound 1 µM, first compound 10 µM): 48.8%

IC50 (second compound 0.00316 µM): 230 nM
IC50 (second compound 0.01 µM): 212 nM
IC50 (second compound 0.0316 µM): 195 nM
IC50 (second compound 0.1 µM): 327 nM
IC50 (second compound 0.316 µM): 148 nM
IC50 (second compound 1 µM): 324 nM
SMILES: O=C(c1ccc(F)c(F)c1Nc1ccc(I)cc1F)N1CC(O)([C@@H]2CCCCN2)C1 + C=CC(=O)N1CCN(c2nc(OCC3CCCN3C)nc3c(F)c(-c4nc(N)cc(C)c4C(F)(F)F)c(Cl)cc23)C(C)C1
viability, T/C (second compound 0.00316 µM, first compound 0.00316 µM): 86%
viability, T/C (second compound 0.00316 µM, first compound 0.01 µM): 90.4%
viability, T/C [1]: 72%
viability, T/C [2]: 61.1%
viability, T/C [3]: 47.1%
viability, T/C [4]: 33%
viability, T/C (second compound 0.01 µM, first compound 0.00316 µM): 105%
viability, T/C (second compound 0.01 µM, first compound 0.01 µM): 80.9%
viability, T/C [5]: 70.3%
viability, T/C [6]: 61.9%
viability, T/C [7]: 48.5%
viability, T/C [8]: 30.9%
viability, T/C (second compound 0.0316 µM, first compound 0.00316 µM): 96.1%
viability, T/C (second compound 0.0316 µM, first compound 0.01 µM): 90.7%
viability, T/C [9]: 77%
viability, T/C [10]: 55.5%
viability, T/C [11]: 47.4%
viability, T/C [12]: 35.9%
viability, T/C (second compound 0.1 µM, first compound 0.00316 µM): 96.4%
viability, T/C (second compound 0.1 µM, first compound 0.01 µM): 82.5%
viability, T/C [13]: 73.5%
viability, T/C [14]: 69.2%
viability, T/C [15]: 49.4%
viability, T/C [16]: 34.4%
viability, T/C (second compound 0.316 µM, first compound 0.00316 µM): 90.6%
viability, T/C (second compound 0.316 µM, first compound 0.01 µM): 86.2%
viability, T/C [17]: 84.1%
viability, T/C [18]: 52.6%
viability, T/C [19]: 49.2%
viability, T/C [20]: 37.1%
viability, T/C (second compound 1 µM, first compound 0.00316 µM): 86.1%
viability, T/C (second compound 1 µM, first compound 0.01 µM): 72.9%
viability, T/C [21]: 58%
viability, T/C [22]: 70.8%
viability, T/C [23]: 50.8%
viability, T/C [24]: 36.6%
